Measured values reported in patent publication US20230265151A1, “GIP/GLP1 CO-AGONIST COMPOUNDS” (priority 2020, published 2023).
Like-named read-outs stand apart in the source and are kept apart here.

Key:
Type in all cases: cell-based
[1] = target: hGLP-1R (Homo sapiens, UniProt P43220); experiment: Functional cAMP formation (HTRF) in HEK-293 clonal cells expressing hGLP-1R, 0.1% bovine casein, without or with 1.0% human serum albumin; parameters: expressed in transfected cells; conditions: for EC50: cAMP, 0.1% bovine casein (no human serum albumin), geometric mean
hGLP-1R, sequence (P43220 24-463): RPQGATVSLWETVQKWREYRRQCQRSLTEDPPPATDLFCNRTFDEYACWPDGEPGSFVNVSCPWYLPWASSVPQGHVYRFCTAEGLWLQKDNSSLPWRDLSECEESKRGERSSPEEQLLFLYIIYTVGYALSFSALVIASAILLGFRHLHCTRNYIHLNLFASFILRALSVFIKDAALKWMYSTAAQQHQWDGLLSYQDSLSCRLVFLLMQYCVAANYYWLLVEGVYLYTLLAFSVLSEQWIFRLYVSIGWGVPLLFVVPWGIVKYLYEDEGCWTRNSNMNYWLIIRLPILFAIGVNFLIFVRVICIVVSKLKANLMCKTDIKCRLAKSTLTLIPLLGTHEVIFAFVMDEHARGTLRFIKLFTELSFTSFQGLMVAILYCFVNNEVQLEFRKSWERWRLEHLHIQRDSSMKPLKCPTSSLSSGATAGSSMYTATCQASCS
Summary of the method: (§1)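 Cells were stimulated with peptide for 30 min at 37° C, then intracellular cAMP was measured by competitive HTRF (665/620 nm ratio) and converted to nM using a cAMP standard curve. Relative EC50 and Emax came from four-parameter logistic fits of percent maximal response against peptide concentration.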

[2] = target: T1, hGCGR (Homo sapiens, UniProt P47871); experiment: Functional cAMP formation (HTRF) in HEK-293 clonal cells expressing hGCGR, 0.1% bovine casein, without or with 1.0% human serum albumin; conditions: cAMP
T1 construct: expressed in transfected cells
T1 sequence (P47871 26-477): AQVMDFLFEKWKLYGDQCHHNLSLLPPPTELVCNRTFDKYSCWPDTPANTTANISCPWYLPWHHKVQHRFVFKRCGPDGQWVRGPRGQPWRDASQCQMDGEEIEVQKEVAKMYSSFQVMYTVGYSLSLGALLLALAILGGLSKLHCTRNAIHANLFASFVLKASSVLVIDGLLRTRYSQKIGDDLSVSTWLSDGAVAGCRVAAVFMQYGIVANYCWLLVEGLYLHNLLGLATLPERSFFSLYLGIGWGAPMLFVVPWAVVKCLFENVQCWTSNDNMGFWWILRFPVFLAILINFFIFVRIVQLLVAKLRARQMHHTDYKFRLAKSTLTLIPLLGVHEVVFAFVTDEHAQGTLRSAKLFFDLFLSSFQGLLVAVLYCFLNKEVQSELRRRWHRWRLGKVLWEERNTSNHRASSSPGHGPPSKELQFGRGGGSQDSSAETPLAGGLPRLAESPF
Summary of the method: as §1

[3] = target: T2, hGIPR (Homo sapiens, UniProt P48546); experiment: Functional cAMP formation (HTRF) in HEK-293 clonal cells expressing hGIPR, 0.1% bovine casein, without or with 1.0% human serum albumin; conditions: for EC50: cAMP, 0.1% bovine casein (no human serum albumin), geometric mean
T2 construct: expressed in transfected cells
T2 sequence (P48546 22-466): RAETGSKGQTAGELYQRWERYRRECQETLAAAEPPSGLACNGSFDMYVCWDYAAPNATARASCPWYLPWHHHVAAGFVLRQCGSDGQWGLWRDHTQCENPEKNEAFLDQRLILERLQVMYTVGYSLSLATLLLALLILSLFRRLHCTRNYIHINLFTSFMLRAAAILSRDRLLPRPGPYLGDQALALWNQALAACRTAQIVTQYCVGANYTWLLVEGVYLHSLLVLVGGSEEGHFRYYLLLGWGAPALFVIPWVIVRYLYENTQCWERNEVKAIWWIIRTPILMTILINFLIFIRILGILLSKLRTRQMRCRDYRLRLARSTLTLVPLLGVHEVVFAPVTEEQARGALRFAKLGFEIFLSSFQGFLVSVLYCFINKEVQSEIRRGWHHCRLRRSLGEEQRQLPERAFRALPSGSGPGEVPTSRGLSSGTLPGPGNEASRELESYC
Summary of the method: as §1

Molecule CC[C@H](C)[C@H](NC(=O)[C@H](CC(C)C)NC(=O)[C@](C)(Cc1ccc(O)cc1)NC(=O)[C@H](CCCCNC(=O)COCCOCCNC(=O)COCCOCCNC(=O)[C@H]1CC[C@H](CNC(=O)CC[C@H](NC(=O)CCCCCCCCCCCCC(=O)O)C(=O)O)CC1)NC(=O)[C@@H](NC(=O)[C@H](Cc1ccccc1)NC(=O)[C@H](CCCN)NC(=O)C(C)(C)NC(=O)[C@H](CCC(N)=O)NC(=O)[C@H](C)NC(=O)[C@H](CCC(N)=O)NC(=O)[C@H](CCCN)NC(=O)[C@H](CC(=O)O)NC(=O)[C@H](CC(C)C)NC(=O)[C@](C)(CC(C)C)NC(=O)[C@@H](NC(=O)C(C)(C)NC(=O)[C@H](Cc1ccncc1)NC(=O)[C@H](CC(=O)O)NC(=O)[C@H](CO)NC(=O)[C@@H](NC(=O)[C@](C)(Cc1ccccc1F)NC(=O)[C@@H](NC(=O)CNC(=O)[C@H](CCC(=O)O)NC(=O)C(C)(C)NC(=O)[C@@H](N)Cc1ccc(O)cc1)[C@@H](C)O)[C@@H](C)O)[C@@H](C)CC)[C@@H](C)CC)C(=O)N[C@@H](CCCCNC(=O)COCCOCCNC(=O)COCCOCCNC(=O)[C@H]1CC[C@H](CNC(=O)CC[C@H](NC(=O)CCCCCCCCCCCCC(=O)O)C(=O)O)CC1)C(=O)NCC(=O)NCC(=O)N1CCC[C@H]1C(=O)N[C@@H](CO)C(=O)N[C@@H](CO)C(=O)NCC(=O)N[C@@H](C)C(=O)N1CCC[C@H]1C(=O)N1CCC[C@H]1C(=O)N1CCC[C@H]1C(=O)N[C@@H](CO)C(N)=O [Example 470] has an Emax ([1]; HEK293, cAMP, 37° C., 0.1% bovine casein and 1.0% human serum albumin, percent of maximal response to GLP-1(7-36)NH2, read-out: hGLP-1R Emax, % ± SEM) of 113%, an Emax ([1]; HEK293, cAMP, 37° C., 0.1% bovine casein, percent of maximal response to GLP-1(7-36)NH2, arithmetic mean, read-out: hGLP-1R Emax, % ± SEM) of 112% and an EC50 ([1]; 37° C., read-out: hGLP-1R EC50, nM (SEM, n)) of 0.127 nM. For the same molecule, the EC50 ([2]; 37° C., 0.1% bovine casein (no human serum albumin), geometric mean, read-out: hGCGR EC50, nM (SEM, n)) was greater than 9950 nM, the EC50 ([2]; 37° C., 0.1% bovine casein and 1.0% human serum albumin, geometric mean (SEM, n), read-out: hGCGR EC50, nM (SEM, n)) was greater than 9950 nM and the Emax ([3]; HEK293, cAMP, 37° C., 0.1% bovine casein and 1.0% human serum albumin, percent of maximal response to GIP(1-42)NH2, read-out: hGIPR Emax, % ± SEM) was 93.9%. The EC50 ([3]; 37° C., read-out: hGIPR EC50, nM (SEM, n)) was 0.0103 nM.
Molecule CC[C@H](C)[C@H](NC(=O)[C@H](CC(C)C)NC(=O)[C@](C)(Cc1ccc(O)cc1)NC(=O)[C@H](CCCCNC(=O)COCCOCCNC(=O)COCCOCCNC(=O)CC[C@H](NC(=O)CCCCCCCCCCCCC(=O)O)C(=O)O)NC(=O)[C@@H](NC(=O)[C@H](Cc1ccccc1)NC(=O)[C@H](CCC(=O)O)NC(=O)C(C)(C)NC(=O)[C@H](CCC(N)=O)NC(=O)[C@H](C)NC(=O)[C@H](CCCCNC(=O)COCCOCCNC(=O)COCCOCCNC(=O)CC[C@H](NC(=O)CCCCCCCCCCCCC(=O)O)C(=O)O)NC(=O)[C@H](CCCN)NC(=O)[C@H](CC(=O)O)NC(=O)[C@H](CC(C)C)NC(=O)[C@](C)(CC(C)C)NC(=O)[C@@H](NC(=O)C(C)(C)NC(=O)[C@H](Cc1ccncc1)NC(=O)[C@H](CC(=O)O)NC(=O)[C@H](CO)NC(=O)[C@@H](NC(=O)[C@](C)(Cc1ccccc1F)NC(=O)[C@@H](NC(=O)CNC(=O)[C@H](CCC(=O)O)NC(=O)C(C)(C)NC(=O)[C@@H](N)Cc1ccc(O)cc1)[C@@H](C)O)[C@@H](C)O)[C@@H](C)CC)[C@@H](C)CC)C(=O)N[C@@H](CCC(=O)O)C(=O)NCC(=O)NCC(=O)N1CCC[C@H]1C(=O)N[C@@H](CO)C(=O)N[C@@H](CO)C(=O)NCC(=O)N[C@@H](C)C(=O)N1CCC[C@H]1C(=O)N1CCC[C@H]1C(=O)N1CCC[C@H]1C(=O)N[C@@H](CO)C(N)=O [Example 113] has an EC50 ([1]; hGLP-1R EC50, nM (SEM, n), incubated at 37° C.) of 0.291 nM, an EC50 ([2]; hGCGR EC50, nM (SEM, n), incubated at 37° C., 0.1% bovine casein (no human serum albumin), geometric mean) greater than 9950 nM and an Emax ([3]; HEK293, read-out: hGIPR Emax, % ± SEM, percent of maximal response to GIP(1-42)NH2, 37° C., 0.1% bovine casein, arithmetic mean) of 97.9 ± 3.21%.
In the case of CCCCCCCCCCCC(=O)N[C@@H](CCC(=O)NCCOCCOCC(=O)NCCOCCOCC(=O)NCCCC[C@H](NC(=O)CNC(=O)CNC(=O)[C@H](CCC(=O)O)NC(=O)[C@@H](NC(=O)[C@H](CC(C)C)NC(=O)[C@](C)(Cc1ccccc1)NC(=O)[C@@H](CCC(=O)O)NC(=O)[C@@H](NC(=O)[C@](C)(Cc1ccccc1)NC(=O)[C@H](CCC(=O)O)NC(=O)C(C)(C)NC(=O)[C@H](CCC(N)=O)NC(=O)[C@H](C)NC(=O)[C@H](CCCCNC(=O)COCCOCCNC(=O)COCCOCCNC(=O)CC[C@H](NC(=O)CCCCCCCCCCC)C(=O)O)NC(=O)[C@H](CCCN)NC(=O)[C@H](CC(=O)O)NC(=O)[C@H](CC(C)C)NC(=O)[C@](C)(CC(C)C)NC(=O)[C@@H](NC(=O)[C@H](CO)NC(=O)[C@H](Cc1ccncc1)NC(=O)[C@H](CC(=O)O)NC(=O)[C@H](CO)NC(=O)[C@@H](NC(=O)[C@](C)(Cc1ccccc1)NC(=O)[C@@H](NC(=O)CNC(=O)[C@H](CCC(=O)O)NC(=O)C(C)(C)NC(=O)[C@@H](N)Cc1ccc(O)cc1)[C@@H](C)O)[C@@H](C)O)[C@@H](C)CC)[C@@H](C)CC)[C@@H](C)CC)C(=O)N[C@@H](CO)C(=O)N[C@@H](CO)C(=O)NCC(=O)N[C@@H](C)C(=O)N1CCC[C@H]1C(=O)N1CCC[C@H]1C(=O)N1CCC[C@H]1C(=O)N[C@@H](CO)C(N)=O)C(=O)O [Example 174], the Emax ([1]; HEK293, percent of maximal response to GLP-1(7-36)NH2, 37° C., 0.1% bovine casein, arithmetic mean, read-out: hGLP-1R Emax, % ± SEM) is reported as 98.2%, the EC50 ([2]; incubated at 37° C., 0.1% bovine casein (no human serum albumin), geometric mean, read-out: hGCGR EC50, nM (SEM, n)) is reported as greater than 9950 nM and the Emax ([3]; HEK293, percent of maximal response to GIP(1-42)NH2, 37° C., 0.1% bovine casein, arithmetic mean, read-out: hGIPR Emax, % ± SEM) is reported as 92.2%.
CC[C@H](C)[C@H](NC(=O)[C@H](CC(C)C)NC(=O)[C@](C)(Cc1ccc(O)cc1)NC(=O)[C@@H](CCC(=O)O)NC(=O)[C@@H](NC(=O)[C@H](Cc1ccccc1)NC(=O)[C@H](CCC(=O)O)NC(=O)C(C)(C)NC(=O)[C@H](CCC(N)=O)NC(=O)[C@H](C)NC(=O)[C@H](CCCCNC(=O)COCCOCCNC(=O)CC[C@H](NC(=O)CCCCCCCCCOc1ccc(C(=O)O)cc1)C(=O)O)NC(=O)[C@H](CCCN)NC(=O)[C@H](CC(=O)O)NC(=O)[C@H](CC(C)C)NC(=O)[C@](C)(CC(C)C)NC(=O)[C@@H](NC(=O)C(C)(C)NC(=O)[C@H](Cc1ccc(O)cc1)NC(=O)[C@H](CC(=O)O)NC(=O)[C@H](CO)NC(=O)[C@@H](NC(=O)[C@](C)(Cc1ccccc1F)NC(=O)[C@@H](NC(=O)CNC(=O)[C@H](CCC(=O)O)NC(=O)C(C)(C)NC(=O)[C@@H](N)Cc1ccc(O)cc1)[C@@H](C)O)[C@@H](C)O)[C@@H](C)CC)[C@@H](C)CC)C(=O)N[C@@H](CCCCNC(=O)COCCOCCNC(=O)CC[C@H](NC(=O)CCCCCCCCCOc1ccc(C(=O)O)cc1)C(=O)O)C(=O)NCC(=O)NCC(=O)N1CCC[C@H]1C(=O)N[C@@H](CO)C(=O)N[C@@H](CO)C(=O)NCC(=O)N[C@@H](C)C(=O)N1CCC[C@H]1C(=O)N1CCC[C@H]1C(=O)N1CCC[C@H]1C(=O)N[C@@H](CO)C(N)=O [Example 373] was tested, and the Emax ([1]; HEK293, read-out: hGLP-1R Emax, % ± SEM, cAMP, 37° C., 0.1% bovine casein and 1.0% human serum albumin, percent of maximal response to GLP-1(7-36)NH2) was 112%, the EC50 ([1]; hGLP-1R EC50, nM (SEM, n), 37° C.) was 0.329 nM and the EC50 ([2]; hGCGR EC50, nM (SEM, n), 37° C., 0.1% bovine casein (no human serum albumin), geometric mean) was greater than 9950 nM. For the same molecule, the EC50 ([2]; hGCGR EC50, nM (SEM, n), 37° C., 0.1% bovine casein and 1.0% human serum albumin, geometric mean (SEM, n)) was greater than 9950 nM, the Emax ([3]; HEK293, read-out: hGIPR Emax, % ± SEM, cAMP, 37° C., 0.1% bovine casein and 1.0% human serum albumin, percent of maximal response to GIP(1-42)NH2) was 82.4% and the EC50 ([3]; hGIPR EC50, nM (SEM, n), 37° C.) was 0.0152 nM.
